Experimental data: ChEMBL document CHEMBL1154395, “Modulations of the amide function of the preferential dopamine D3 agonist (R,R)-S32504: improvements of affinity and selectivity for D3 versus D2 receptors” (Bioorg Med Chem Lett, 2009)

Legend:
D(3) dopamine receptor [1] = biological target: T1, D(3) dopamine receptor (Homo sapiens, UniProt P35462); test: Displacement of [3H]spiperone form human cloned dopamine D3 receptor expressed in CHO cells; assay type: cell-based
D(2) dopamine receptor = D(2) dopamine receptor (Homo sapiens, UniProt P14416); test: Displacement of [3H]spiperone form human cloned dopamine D2L receptor expressed in CHO cells; assay type: cell-based
Homo sapiens = species: Homo sapiens; test: Selectivity ratio of Ki for human dopamine D2 receptor to Ki for human dopamine D3 receptor
D(3) dopamine receptor [2] = biological target: T1, D(3) dopamine receptor; test: Activation of human dopamine D3 receptor expressed in CHO cells assessed as [35S]GTPgammaS binding by scintillation proximity assay; assay type: functional, cell-based

T1 sequence (P35462 whole entry): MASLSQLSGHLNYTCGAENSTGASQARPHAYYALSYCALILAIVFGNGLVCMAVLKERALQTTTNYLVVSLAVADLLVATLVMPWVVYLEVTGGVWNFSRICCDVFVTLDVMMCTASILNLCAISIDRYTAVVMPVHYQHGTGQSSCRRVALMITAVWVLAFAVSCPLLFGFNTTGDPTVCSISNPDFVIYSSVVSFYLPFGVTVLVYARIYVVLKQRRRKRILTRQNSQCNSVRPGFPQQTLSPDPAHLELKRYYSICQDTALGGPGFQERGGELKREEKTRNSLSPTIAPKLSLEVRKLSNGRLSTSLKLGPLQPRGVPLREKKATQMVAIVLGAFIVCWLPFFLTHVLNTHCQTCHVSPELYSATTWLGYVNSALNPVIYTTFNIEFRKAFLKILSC
D(2) dopamine receptor, sequence (P14416 whole entry): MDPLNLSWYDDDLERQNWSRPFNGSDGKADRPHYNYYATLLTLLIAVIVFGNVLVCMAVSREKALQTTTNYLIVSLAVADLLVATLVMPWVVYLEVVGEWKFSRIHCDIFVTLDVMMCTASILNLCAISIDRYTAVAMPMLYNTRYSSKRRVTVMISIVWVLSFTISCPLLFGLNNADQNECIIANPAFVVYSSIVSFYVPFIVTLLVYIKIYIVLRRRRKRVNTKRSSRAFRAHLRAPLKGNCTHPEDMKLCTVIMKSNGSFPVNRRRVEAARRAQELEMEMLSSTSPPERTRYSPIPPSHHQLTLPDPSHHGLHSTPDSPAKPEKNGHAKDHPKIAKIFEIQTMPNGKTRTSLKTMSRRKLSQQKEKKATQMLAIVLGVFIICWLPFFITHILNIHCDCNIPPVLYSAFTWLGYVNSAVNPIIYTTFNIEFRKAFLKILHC

SMILES	Ki (D(3) dopamine receptor [1]) [nM]	Ki (D(2) dopamine receptor) [nM]	Ratio Ki (Homo sapiens)	EC50 (D(3) dopamine receptor [2]) [nM]
CCCN1CCO[C@@H]2c3cc(C(=O)NC)ccc3CC[C@H]21	> 10000	7940		
CCCN(CCC)CCc1cccc2c1CC(=O)N2 [ROPINIROLE]		692		
CCCN1CCO[C@@H]2c3cc(-c4nnn[nH]4)ccc3CC[C@H]21	> 10000	> 10000		
CCCN1CCO[C@@H]2c3cc4c(=O)[nH]ccc4cc3CC[C@H]21		1200		
CCCN1CCO[C@@H]2c3cc(C(=O)O)ccc3CC[C@H]21	3310	> 10000		
CCCN1CCO[C@@H]2c3cc(C(=O)N(C)C)ccc3CC[C@H]21	> 10000	1860		
CCCN1CCO[C@H]2c3cc(C(N)=O)ccc3CC[C@@H]21	2450	> 10000		
CCCN1CCOC2c3cc(C(N)=O)ccc3CCC21 (racemic)	19.5	759	40	

Other lines, results leading:

Ki (D(3) dopamine receptor [1]) [nM]	Ki (D(2) dopamine receptor) [nM]	Ratio Ki (Homo sapiens)	EC50 (D(3) dopamine receptor [2]) [nM]	SMILES
> 10000	4570			CCCCNC(=O)c1ccc2c(c1)[C@H]1OCCN(CCC)[C@@H]1CC2
95.5	3090	32		CCCN1CCO[C@@H]2c3cc(C(C)=O)ccc3CC[C@H]21
14.8	1200	80	2.29	CCCN1CCO[C@@H]2c3cc(C(N)=O)ccc3CC[C@H]21
	2040			CCCN1CCO[C@@H]2c3cc4c(cc3CC[C@H]21)COC4=O
	776			CCCN1CCO[C@@H]2c3cc4c(cc3CC[C@H]21)CCNC4=O
> 10000	3390			CCCN1CCO[C@@H]2c3cc(C(=O)NCc4ccc(OC)cc4)ccc3CC[C@H]21
120	1480	12.5		CCCN1CCO[C@@H]2c3cc4c(cc3CC[C@H]21)CCOC4=O
2190	> 10000			CCCN1CCO[C@@H]2c3cc4c(cc3CC[C@H]21)CN(C)C4=O
2750	> 10000			CCCN1CCO[C@@H]2c3cc(C(=O)Nc4ccc(OC)cc4)ccc3CC[C@H]21
> 10000	> 1000			CCCN1CCO[C@@H]2c3cc(C(=O)OC)ccc3CC[C@H]21
2630				CCCN1CCO[C@@H]2c3cc(C(=O)OCC)ccc3CC[C@H]21
39.8	794	20		CCCN1CCO[C@@H]2c3cc(C#N)ccc3CC[C@H]21
